Measured values from ChEMBL document CHEMBL3813672, “Discovery of anti-cancer activity for benzo[1,2,4]triazin-7-ones: Very strong correlation to pleurotin and thioredoxin reductase inhibition” (Bioorg Med Chem, 2016).

Columns and labels:
[1] = system: NCI-H23; test: Growth inhibition of human NCI-H23 cells incubated for 48 hrs by sulforhodamine B assay; format: functional; settings: NCI-H23, 48 h
[2] = Growth inhibition of human Caki1 cells incubated for 48 hrs by sulforhodamine B assay; format: functional; settings: CAKI-1, 48 h
[3] = Growth inhibition of human UACC257 cells incubated for 48 hrs by sulforhodamine B assay; format: functional; settings: UACC-257, 48 h
[4] = system: EKVX; test: Growth inhibition of human EKVX cells assessed as cell growth at 10 uM incubated for 48 hrs by sulforhodamine B assay relative to control; format: functional; settings: read-out: Activity
[5] = Growth inhibition of human RXF393 cells incubated for 48 hrs by sulforhodamine B assay; format: functional; settings: RXF 393, 48 h
[6] = Growth inhibition of human RPMI8226 cells incubated for 48 hrs by sulforhodamine B assay; format: functional; settings: RPMI-8226, 48 h
[7] = Growth inhibition of human HCT15 cells incubated for 48 hrs by sulforhodamine B assay; format: functional; settings: HCT-15, 48 h
[8] = Growth inhibition of human BT549 cells incubated for 48 hrs by sulforhodamine B assay; format: functional; settings: BT-549, 48 h
[9] = Growth inhibition of human HOP62 cells incubated for 48 hrs by sulforhodamine B assay; format: functional; settings: HOP-62, 48 h
[10] = Growth inhibition of human OVCAR8 cells incubated for 48 hrs by sulforhodamine B assay; format: functional; settings: OVCAR-8, 48 h
[11] = system: Malme-3M; test: Growth inhibition of human MALME-3M cells incubated for 48 hrs by sulforhodamine B assay; format: functional
[12] = system: KM12; test: Growth inhibition of human KM12 cells incubated for 48 hrs by sulforhodamine B assay; format: functional; settings: KM12, 48 h
[13] = system: CCRF-CEM; test: Growth inhibition of human CCRF-CEM cells incubated for 48 hrs by sulforhodamine B assay; format: functional
[14] = Growth inhibition of human HCC2998 cells incubated for 48 hrs by sulforhodamine B assay; format: functional; settings: HCC 2998, 48 h
[15] = Growth inhibition of human PC3 cells incubated for 48 hrs by sulforhodamine B assay; format: functional; settings: PC-3, 48 h
[16] = Growth inhibition of human HOP92 cells incubated for 48 hrs by sulforhodamine B assay; format: functional; settings: HOP-92, 48 h
[17] = Growth inhibition of human SF539 cells incubated for 48 hrs by sulforhodamine B assay; format: functional; settings: SF-539, 48 h
[18] = system: SR; test: Growth inhibition of human SR cells incubated for 48 hrs by sulforhodamine B assay; format: functional
[19] = Growth inhibition of human COLO205 cells incubated for 48 hrs by sulforhodamine B assay; format: functional; settings: COLO 205, 48 h
[20] = system: MDA-MB-468; test: Growth inhibition of human MDA-MB-468 cells incubated for 48 hrs by sulforhodamine B assay; format: functional; settings: MDA-MB-468, 48 h
[21] = system: U-251; test: Growth inhibition of human U251 cells incubated for 48 hrs by sulforhodamine B assay; format: functional; settings: U-251, 48 h
[22] = Growth inhibition of human Hs 578T cells incubated for 48 hrs by sulforhodamine B assay; format: functional
[23] = Uncompetitive inhibition of rat liver thioredoxin reductase using DTNB as substrate measured for 50 mins at 5 mins intervals in presence of NADPH by Lineweaver-Burk plot analysis
[24] = system: MDA-MB-231; test: Growth inhibition of human MDA-MB-231/ATCC cells incubated for 48 hrs by sulforhodamine B assay; format: functional; settings: MDA-MB-231, 48 h
[25] = Growth inhibition of human TK10 cells incubated for 48 hrs by sulforhodamine B assay; format: functional; settings: TK-10, 48 h
[26] = read-out: pLC50 (the source's name) (converted)

With `O=c1ccc2nc(C(F)(F)F)nn(-c3ccccc3)c-2c1` the GI50 [1] was 5.89 µM, the CC50 [1, 26] was 66.1 µM and the TGI ([1]; read-out: pTGI (converted)) was 22.4 µM. It also gave a GI50 [2] of 1480 nM, a CC50 [2, 26] of 5.37 µM and a TGI ([2]; read-out: pTGI (converted)) of 2820 nM. The GI50 [3] was 1910 nM, the CC50 [3, 26] was 8.51 µM and the TGI ([3]; read-out: pTGI (converted)) was 4.07 µM. For the same compound, the growth at 10 µM [4] was 95.8%, the GI50 [5] was 1450 nM and the CC50 [5, 26] was 5.37 µM. For the same compound, the TGI ([5]; read-out: pTGI (converted)) was 2820 nM, the GI50 [6] was 4.79 µM and the CC50 [6, 26] was over 100 µM. It also gave a TGI ([6]; read-out: pTGI (converted)) of 77.6 µM, a GI50 [7] of 2290 nM and a CC50 [7, 26] of 8.13 µM. It also gave a TGI ([7]; read-out: pTGI (converted)) of 3.39 µM, a GI50 [8] of 12.3 µM and a CC50 [8, 26] of 50.1 µM. It also gave a TGI ([8]; read-out: pTGI (converted)) of 24.5 µM, a GI50 [9] of 7.94 µM and a CC50 [9, 26] of 83.2 µM. The TGI ([9]; read-out: pTGI (converted)) was 27.5 µM, the GI50 [10] was 4.17 µM and the CC50 [10, 26] was over 100 µM. It also gave a TGI ([10]; read-out: pTGI (converted)) of 33.9 µM, a GI50 [11] of 1820 nM and a CC50 [11, 26] of 6.03 µM. It also gave a TGI ([11]; read-out: pTGI (converted)) of 3.31 µM, a GI50 [12] of 19.5 µM and a CC50 [12, 26] of 70.8 µM. The TGI ([12]; read-out: pTGI (converted)) was 37.2 µM, the GI50 [13] was 2340 nM and the CC50 [13, 26] was over 100 µM. For the same compound, the GI50 [14] was 15.5 µM, the CC50 [14, 26] was 57.5 µM and the TGI ([14]; read-out: pTGI (converted)) was 29.5 µM. It also gave a GI50 [15] of 10.7 µM, a CC50 [15, 26] of 52.5 µM and a TGI ([15]; read-out: pTGI (converted)) of 23.4 µM. It also gave a GI50 [16] of 1380 nM, a CC50 [16, 26] of 6.17 µM and a TGI ([16]; read-out: pTGI (converted)) of 2950 nM. The GI50 [17] was 15.8 µM, the CC50 [17, 26] was 55 µM and the TGI ([17]; read-out: pTGI (converted)) was 29.5 µM. The GI50 [18] was 1000 nM, the CC50 [18, 26] was over 100 µM and the TGI ([18]; read-out: pTGI) was over 100 µM. For the same compound, the GI50 [19] was 2290 nM, the CC50 [19, 26] was over 100 µM and the TGI ([19]; read-out: pTGI (converted)) was 5.75 µM. The GI50 [20] was 1070 nM, the CC50 [20, 26] was 8.32 µM and the TGI ([20]; read-out: pTGI (converted)) was 2950 nM. It also gave a GI50 [21] of 13.5 µM, a CC50 [21, 26] of 60.3 µM and a TGI ([21]; read-out: pTGI (converted)) of 28.8 µM. For the same compound, the GI50 [22] was 12.3 µM, the CC50 [22, 26] was over 100 µM and the TGI ([22]; read-out: pTGI (converted)) was 81.3 µM. It also gave a Ki [23] of 780 nM, a GI50 [24] of 1910 nM and a CC50 [24, 26] of 26.9 µM. It also gave a TGI ([24]; read-out: pTGI (converted)) of 5.62 µM, a GI50 [25] of 1620 nM and a CC50 [25, 26] of 5.89 µM. For the same compound, the TGI ([25]; read-out: pTGI (converted)) was 3.09 µM.
